# In the supplement of paper PMC11451515:
# Tested on: P12-Ichikawa
# Assay: cell viability relative to DMSO control; higher = less cytotoxic
# Conditions: 48 h
# How it was run: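 Viability, reported as a per-plate percentage of DMSO wells with cell-free wells as background, came from CellTiter-Glo One luminescence. Reading took place after 48 h at 37°C. Before that, NOMO1 or SEM (500 cells/well) or P12-Ichikawa (1000 cells/well) leukemia cells, adapted for at least four passages in each medium, were seeded in 1536-well plates (5 μl) and pin-dosed with library compounds in DMSO, 47 μM to 0.79 nM over 11 threefold points.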
# [1] = HPLM + 10% dialyzed FBS, 0.000781 µM
# [2] = HPLM + 10% dialyzed FBS, 0.00234 µM
# [3] = HPLM + 10% dialyzed FBS, 0.00702 µM
# [4] = HPLM + 10% dialyzed FBS, 0.0211 µM
# [5] = HPLM + 10% dialyzed FBS, 0.0632 µM
# [6] = HPLM + 10% dialyzed FBS, 0.19 µM
# [7] = HPLM + 10% dialyzed FBS, 0.569 µM
# [8] = HPLM + 10% dialyzed FBS, 1.71 µM
# [9] = HPLM + 10% dialyzed FBS, 5.12 µM
# [10] = HPLM + 10% dialyzed FBS, 15.4 µM
# [11] = HPLM + 10% dialyzed FBS, 46.1 µM
# [12] = RPMI 5 mM glucose + 10% FBS, 0.000781 µM
# [13] = RPMI 5 mM glucose + 10% FBS, 0.00234 µM
# [14] = RPMI 5 mM glucose + 10% FBS, 0.00702 µM
# [15] = RPMI 5 mM glucose + 10% FBS, 0.0211 µM
# [16] = RPMI 5 mM glucose + 10% FBS, 0.0632 µM
# [17] = RPMI 5 mM glucose + 10% FBS, 0.19 µM
# [18] = RPMI 5 mM glucose + 10% FBS, 0.569 µM
# [19] = RPMI 5 mM glucose + 10% FBS, 1.71 µM
# [20] = RPMI 5 mM glucose + 10% FBS, 5.12 µM
# [21] = RPMI 5 mM glucose + 10% FBS, 15.4 µM
# [22] = RPMI 5 mM glucose + 10% FBS, 46.1 µM
# [23] = RPMI 5 mM glucose + 10% dialyzed FBS, 0.000781 µM
# [24] = RPMI 5 mM glucose + 10% dialyzed FBS, 0.00234 µM
# [25] = RPMI 5 mM glucose + 10% dialyzed FBS, 0.00702 µM
# [26] = RPMI 5 mM glucose + 10% dialyzed FBS, 0.0211 µM
# [27] = RPMI 5 mM glucose + 10% dialyzed FBS, 0.0632 µM
# [28] = RPMI 5 mM glucose + 10% dialyzed FBS, 0.19 µM
# [29] = RPMI 5 mM glucose + 10% dialyzed FBS, 0.569 µM
# [30] = RPMI 5 mM glucose + 10% dialyzed FBS, 1.71 µM
# [31] = RPMI 5 mM glucose + 10% dialyzed FBS, 5.12 µM
# [32] = RPMI 5 mM glucose + 10% dialyzed FBS, 15.4 µM
# [33] = RPMI 5 mM glucose + 10% dialyzed FBS, 46.1 µM
SMILES,cell viability [1] [%],cell viability [2] [%],cell viability [3] [%],cell viability [4] [%],cell viability [5] [%],cell viability [6] [%],cell viability [7] [%],cell viability [8] [%],cell viability [9] [%],cell viability [10] [%],cell viability [11] [%],cell viability [12] [%],cell viability [13] [%],cell viability [14] [%],cell viability [15] [%],cell viability [16] [%],cell viability [17] [%],cell viability [18] [%],cell viability [19] [%],cell viability [20] [%],cell viability [21] [%],cell viability [22] [%],cell viability [23] [%],cell viability [24] [%],cell viability [25] [%],cell viability [26] [%],cell viability [27] [%],cell viability [28] [%],cell viability [29] [%],cell viability [30] [%],cell viability [31] [%],cell viability [32] [%],cell viability [33] [%]
COC1=C2C[C@@H](C)C[C@H](OC)[C@H](O)[C@@H](C)/C=C(\C)[C@H](OC(N)=O)[C@@H](OC)/C=C/C=C(\C)C(=O)NC(=CC1=O)C2=O,114,106,116,109,107,113,98.6,104,77.4,48.4,38.6,106,109,108,112,108,108,102,90.8,80.5,51.5,27.2,116,117,114,111,108,111,108,94.4,72.2,34.2,28
Cc1cc(C(=O)N2CCN(c3cccc(Cl)c3)CC2)n(-c2ccccc2)n1,109,107,103,107,103,103,105,50.2,23.9,10.1,12.5,105,113,102,105,101,90.2,101,80.5,36.8,10.4,16.6,101,92.8,105,104,103,91.2,95.5,70.1,40.9,20.5,20.4
C[S+](=O)([O-])c1cccc(CNc2nc(Nc3ccc4c(c3)CCC(=O)N4)ncc2C(F)(F)F)c1,114,122,112,111,110,107,106,102,106,96.7,14.3,119,120,113,120,108,111,113,103,101,89.9,25.9,110,120,120,113,111,110,106,114,104,94.3,32.3
O=C(Nc1ncc(SCCN2CCCC2)s1)[C@]1(c2ccc([S+](=O)([O-])C3CC3)cc2)C[C@H]1C1CCCCC1,117,115,121,121,116,113,116,108,111,96.5,68.8,120,120,111,123,108,123,105,112,105,108,43.6,111,122,114,121,109,118,120,109,108,88.3,35.9
COc1ccc2c(c1)c(CC(=O)OCC(=O)O)c(C)n2C(=O)c1ccc(Cl)cc1,119,126,118,113,116,114,112,118,112,116,108,,,,,,,,,,,,120,125,116,139,116,119,120,113,115,113,107
CN(C)CCN(C)C(=O)c1ccc(NC(=O)Nc2ccc(-c3nc(N4CCOCC4)c4ccn(CC(F)(F)F)c4n3)cc2)cc1,114,120,112,122,106,100,101,89.7,90.8,90.8,83.2,115,114,121,118,85,77.9,77.7,67.6,64.9,65.4,69.9,,,,,,,,,,,
NC(=O)c1cccc2nc(-c3ccc([C@H]4CCCN4)cc3F)[nH]c12,99.9,110,105,114,115,111,120,114,105,95.8,84.2,97,97.6,100,105,114,113,123,112,109,103,70.1,99.5,105,110,119,109,119,121,116,120,107,65.1
CC(C)c1cnn2c(NCc3ccccc3)cc(NCCCCCCN)nc12,110,124,131,125,122,127,116,113,116,110,76.8,,,,,,,,,,,,,,,,,,,,,,
O=C(Nc1ncc(-c2cc(C(F)F)nn2-c2c(Cl)cccc2Cl)s1)C1CC1,116,122,123,131,130,129,126,14.2,18.3,11,14.6,,,,,,,,,,,,,,,,,,,,,,
